According to ChEMBL document CHEMBL5113452, “Synthesis and biological evaluation of hybrids from optically active ring-opened 3-N-butylphthalide derivatives and 4-fluro-edaravone as potential anti-acute ischemic stroke agents” (Bioorg Med Chem, 2022):
Active and inactive are the calls of the source. The rule behind the calls is not given here.

Tests used:
[1] = test system: Rattus norvegicus; assay: Neuroprotective activity against transient middle cerebral artery occlusion induced ischemia stroke Sprague-Dawley rat model assessed as increase in neuro-fucntional score at 10 mg/kg, iv and measured after 24 hrs by longa's method; assay type: functional, organism-based
[2] = Toxicity in transient middle cerebral artery occlusion induced ischemia stroke Sprague-Dawley rat model assessed as change in body weight at 10 mg/kg, iv and measured after 24 hrs; assay type: organism-based; conditions: in vivo
[3] = test system: Rattus norvegicus; assay: Neuroprotective activity against transient middle cerebral artery occlusion induced cerebral infraction Sprague-Dawley rat model assessed as decrease in cerebral infraction volume at 10 mg/kg, iv and measured after 24 hrs by TTC staining based assay; assay type: functional; design: scale not given: the % may be the effect or the level left
[4] = test system: Rattus norvegicus; assay: Neuroprotective activity against transient middle cerebral artery occlusion induced cerebral infraction Sprague-Dawley rat model assessed as decrease in brain edema at 10 mg/kg, iv and measured after 24 hrs; assay type: functional; design: scale not given: the % may be the effect or the level left
[5] = Metabolic stability in rat plasma assessed as half life at 200 uM and measured upto 24 hrs by HPLC analysis; assay type: ADME, cell-free
[6] = Metabolic stability in rat liver microsomes assessed as half life at 20 mM and measured upto 120 mins by HPLC analysis; assay type: ADME, Microsome
[7] = Prodrug conversion in Sprague-Dawley rat plasma assessed as elimination rate constant of metabolite S-NBP at 10 mg/kg, iv and measured upto 24 hrs by LC-MS/MS analysis; assay type: ADME, organism-based; conditions: in vivo
[8] = Prodrug conversion in Sprague-Dawley rat plasma assessed as half life of metabolite S-NBP at 10 mg/kg, iv and measured upto 24 hrs by LC-MS/MS analysis; assay type: ADME, organism-based; conditions: in vivo
[9] = Prodrug conversion in Sprague-Dawley rat plasma assessed as Cmax of metabolite S-NBP at 10 mg/kg, iv and measured upto 24 hrs by LC-MS/MS analysis; assay type: ADME, organism-based; design: time < 24 hrs, dose 10 mg/kg, route iv; conditions: in vivo
[10] = Prodrug conversion in Sprague-Dawley rat plasma assessed as C0 of metabolite S-NBP at 10 mg/kg, iv and measured upto 24 hrs by LC-MS/MS analysis; assay type: ADME, organism-based; conditions: in vivo
[11] = Prodrug conversion in Sprague-Dawley rat plasma assessed as AUC (0-t) of metabolite S-NBP at 10 mg/kg, iv and measured upto 24 hrs by LC-MS/MS analysis; assay type: ADME, organism-based; design: time < 24 hrs, dose 10 mg/kg, route iv; conditions: in vivo
[12] = Prodrug conversion in Sprague-Dawley rat plasma assessed as AUC (0-infinity) of metabolite S-NBP at 10 mg/kg, iv and measured upto 24 hrs by LC-MS/MS analysis; assay type: ADME, organism-based; design: dose 10 mg/kg, time < 24 hrs, route iv; conditions: in vivo
[13] = Prodrug conversion in Sprague-Dawley rat plasma assessed as AUMC (0-t) of metabolite S-NBP at 10 mg/kg, iv and measured upto 24 hrs by LC-MS/MS analysis; assay type: ADME, organism-based; conditions: in vivo
[14] = Prodrug conversion in Sprague-Dawley rat plasma assessed as AUMC (0-infinity) of metabolite S-NBP at 10 mg/kg, iv and measured upto 24 hrs by LC-MS/MS analysis; assay type: ADME, organism-based; conditions: in vivo
[15] = Prodrug conversion in Sprague-Dawley rat plasma assessed as MRT of metabolite S-NBP at 10 mg/kg, iv and measured upto 24 hrs by LC-MS/MS analysis; assay type: ADME, organism-based; conditions: in vivo
[16] = Prodrug conversion in Sprague-Dawley rat plasma assessed as volume of distribution at steady state of metabolite S-NBP at 10 mg/kg, iv and measured upto 24 hrs by LC-MS/MS analysis; assay type: ADME, organism-based; conditions: in vivo
[17] = Prodrug conversion in Sprague-Dawley rat plasma assessed as elimination rate constant of metabolite 4-F-Eda at 10 mg/kg, iv and measured upto 24 hrs by LC-MS/MS analysis; assay type: ADME, organism-based; conditions: in vivo
[18] = Prodrug conversion in Sprague-Dawley rat plasma assessed as half life of metabolite 4-F-Eda at 10 mg/kg, iv and measured upto 24 hrs by LC-MS/MS analysis; assay type: ADME, organism-based; conditions: in vivo
[19] = Prodrug conversion in Sprague-Dawley rat plasma assessed as Cmax of metabolite 4-F-Eda at 10 mg/kg, iv and measured upto 24 hrs by LC-MS/MS analysis; assay type: ADME, organism-based; design: time < 24 hrs, dose 10 mg/kg, route iv; conditions: in vivo
[20] = Prodrug conversion in Sprague-Dawley rat plasma assessed as C0 of metabolite 4-F-Eda at 10 mg/kg, iv and measured upto 24 hrs by LC-MS/MS analysis; assay type: ADME, organism-based; conditions: in vivo
[21] = Prodrug conversion in Sprague-Dawley rat plasma assessed as AUC (0-t) of metabolite 4-F-Eda at 10 mg/kg, iv and measured upto 24 hrs by LC-MS/MS analysis; assay type: ADME, organism-based; design: dose 10 mg/kg, time < 24 hrs, route iv; conditions: in vivo
[22] = Prodrug conversion in Sprague-Dawley rat plasma assessed as AUC (0-infinity) of metabolite 4-F-Eda at 10 mg/kg, iv and measured upto 24 hrs by LC-MS/MS analysis; assay type: ADME, organism-based; design: dose 10 mg/kg, time < 24 hrs, route iv; conditions: in vivo
[23] = Prodrug conversion in Sprague-Dawley rat plasma assessed as AUMC (0-t) of metabolite 4-F-Eda at 10 mg/kg, iv and measured upto 24 hrs by LC-MS/MS analysis; assay type: ADME, organism-based; conditions: in vivo
[24] = Prodrug conversion in Sprague-Dawley rat plasma assessed as AUMC (0-infinity) of metabolite 4-F-Eda at 10 mg/kg, iv and measured upto 24 hrs by LC-MS/MS analysis; assay type: ADME, organism-based; conditions: in vivo
[25] = Prodrug conversion in Sprague-Dawley rat plasma assessed as MRT of metabolite 4-F-Eda at 10 mg/kg, iv and measured upto 24 hrs by LC-MS/MS analysis; assay type: ADME, organism-based; conditions: in vivo
[26] = Prodrug conversion in Sprague-Dawley rat plasma assessed as volume of distribution at steady state of metabolite 4-F-Eda at 10 mg/kg, iv and measured upto 24 hrs by LC-MS/MS analysis; assay type: ADME, organism-based; conditions: in vivo
[27] = Prodrug conversion in Sprague-Dawley rat plasma assessed as S-NBP metabolite formation at 10 mg/kg, iv and measured upto 24 hrs by LC-MS/MS analysis; assay type: ADME, organism-based; conditions: in vivo
[28] = Prodrug conversion in Sprague-Dawley rat plasma assessed as 4-F-Eda metabolite formation at 10 mg/kg, iv and measured upto 24 hrs by LC-MS/MS analysis; assay type: ADME, organism-based; conditions: in vivo

SMILES: CCCC[C@H](OC(C)=O)c1ccccc1C(=O)Oc1cc(C)nn1-c1ccc(F)cc1
- Activity [1]: Active
- Activity [2]: Non-Toxic
- Activity [3]: 77.85%
- Activity [4]: 13.96%
- half-life at 200 µM [5]: 17 h
- half-life [6]: 0.833 h
- Kel [7]: 0.123 h⁻¹
- t1/2 [8]: 5.69 h
- Cmax [9]: 3242 ng/mL
- C0 [10]: 4653 ng/mL
- AUCt [11]: 2740 ng·h/mL
- AUC [12]: 2819 ng·h/mL
- AUMCt [13]: 9914 hr.hr.ng/ml
- AUMC [14]: 12474 hr.hr.ng/ml
- MRT [15]: 4.45 h
- Vdss [16]: 16.1 L/kg
- Kel [17]: 0.143 h⁻¹
- t1/2 [18]: 5.11 h
- Cmax [19]: 5569 ng/mL
- C0 [20]: 8328 ng/mL
- AUCt [21]: 2958 ng·h/mL
- AUC [22]: 2990 ng·h/mL
- AUMCt [23]: 4095 hr.hr.ng/ml
- AUMC [24]: 5109 hr.hr.ng/ml
- MRT [25]: 1.77 h
- Vdss [26]: 6.18 L/kg
- Drug metabolism [27]: Metabolite_Detected
- Drug metabolism [28]: Metabolite_Detected
